Data from patent publication US20230225987A1, “TOPICAL PHARMACEUTICAL COMPOSITIONS” (Dermavant Sciences GmbH, priority 2020, published 2023).

Legend:
[1] = Pre-formulation solubility of DMVT-505 in excipients and solvent systems; type: physicochemical
Method: (§1) Pre-formulation experiments were performed to understand the solubility and stability of the drug in excipients. In relation to drug/excipient compatibility, DMVT-505 was stable for 2 weeks (peak purity>98%) in most excipients at 40° C., with the exception of MCTs and DMI, which may be due to oxidation. Based on the pre-formulation data, aqueous-based solvent systems were designed for WS3. Further formulations were prepared combining suitable phases developed during all the workstreams to obtain formulations to limit the suspected drug partitioning between the aqueous and oil phases (WS2/3/4).
Experiments conducted on the stability of DMVT-505 in individual excipients also allowed for the identification of suitable alternative oil and aqueous phase excipients, and this information was used during the formulation development as the basis of solvent system design.
For WS3, aqueous phases were designed and DMVT-505 solubility in such systems was determined, ahead of formulation development where formulations were sequentially developed, tested and optimized using accelerated physical stability data generated primarily via the LUMiSizer platform. […] Additionally, combined aspects of each workstream (WS2/3/4) were developed with optimal physical stability and to limit the partitioning of the drug between the oil and aqueous phases.
For WS2, oil phase solvent systems were designed and DMVT-505 solubility in such systems was determined, ahead of formulation development where formulations were sequentially developed, tested and optimized using accelerated physical stability data generated primarily via the LUMiSizer platform. […] A number of emulsifiers and surfactant systems (WS4) were screened in order to achieve a formulation which was, theoretically, as stable as CR01. To do this, WS4 formulations were rationally designed, prepared and tested in a similar fashion to the previous workstreams. Additionally, combined aspects of each workstream (WS2/3/4) were developed with optimal physical stability and to limit the partitioning of the drug between the oil and aqueous phases.

AhR target gene, cyp1a1 = settings: primary human keratinocytes, human or rodent leukocytes
[2] = Nonclinical study, subcutaneous 3 mg/kg/day, 13 weeks (NOAEL); type: in vivo; settings: Rat
[3] = Drug/excipient compatibility, 2 weeks at 40° C.; type: physicochemical; settings: 2 weeks in most excipients at 40° C., with the exception of MCTs and DMI
Method: as §1
as §1, with “oil-based” for “aqueous-based”, “WS2. Formulations based on these solvent systems, along with formulations with alternative emulsifiers (WS4) were developed.” for “WS3.”

[4] = test system: AhR pathway in intestinal human colon adenocarcinoma
[5] = 28-day twice daily topical administration: toxicokinetics, skin concentrations, dermal irritancy and toxicity (Example 7); parameters: species or system Gottingen minipigs; settings: minipig, in vivo
Method: Following dose application on each dosing day, the dose sites were semi-occluded for approximately 20±1 hours from the first dose and then gently washed before the next dose was applied.

[6] = Gao et al., Journal of Polymer Research 2011; cited from earlier work

## CC(C)c1c(O)cc(/C=C/c2ccccc2)cc1O [3,5-Dihydroxy-4-isopropyl-trans-stilbene]
[1]
  solubility in diisopropyl adipate: good solubilizer
  solubility in mineral oil: non-solvent
  solubility in water: not soluble in water
[1]; in fixed oils, fatty alcohols, glycols and volatile solvent
  solubility: > 7 % w/w
AhR target gene, cyp1a1
  expression of the AhR target gene cyp1a1: induce the expression
[2]
  AUC NOAEL: 99 ng·h/mL
[3]
  peak purity: > 98%
[4]
  AhR pathway activity: activator
[5]
  dermal irritation at the dose site: no test article-related dermal irritation
  systemic toxicity: no systemic toxicity
[6]
  sensitivity to oxidation and photo degradation: sensitive to oxidation and photo degradation
